Values of other authors as cited in patent US20160069160A1, “TREATMENT OF MICROBIAL-INFLUENCED CORROSION” (TRICAN WELL SERVICE LTD., priority 2014, published 2016).

System: microbes

Compound	effect of pH on microbial control	efficacy at low pH (below pH 5)	concentration required to be effective at pH 7 relative to pH 9 (pH 7 vs pH 9) [times higher]
tetrakis(hydroxymethyl)phosphonium sulfate [THPS]	unaffected by pH		
O=CCCCC=O [glutaraldehyde]		significantly reduced	4 to 6
